Test results as given in US7262202B2, “Inhibitors of cyclin dependent kinases as anti-cancer agent” (Cyclacel Limited, priority 2001, dated 2007).
Read-outs that look alike come from different tables or passages of the source.

Legend:
human tumour cell lines = test: cell-based anti-proliferative assays
Excerpt: These assays, including methods for their performance, are described in more detail in Example 3. Using such cell line and enzymes assays it may be determined whether a compound is anti-proliferative in the context of the present invention.
(§1) Selected compounds from the above examples were subjected to a standard cellular proliferation assay using a range of different human tumour cell lines. Standard 72-h MTT (thiazolyl blue; 3-[4,5-dimethylthiazol-2-yl]-2,5-diphenyltetrazolium bromide) assays were performed (Haselsberger, K.; Peterson, D. C.; Thomas, D. G.; Darling, J. L. Anti Cancer Drugs 1996, 7, 331–8; Loveland, B. E.; Johns, T. G.; Mackay, I. R.; Vaillant, F.; Wang, Z. X.; Hertzog, P. J. Biochemistry International 1992, 27, 501–10). Human tumour cell lines were obtained from the ATCC (American Type Culture Collection, 10801 University Boulevard, Manessas, Va. 20110-2209, USA).

Saos-2 = test: 72-h MTT cellular proliferation assay, Saos-2; assay type: cell-based; settings: human tumour cell line Saos-2, 72-h MTT; read-out: Cytotoxicity (IC50, μM) Saos-2
Excerpt: (§2) Selected compounds from the above examples were subjected to a standard cellular proliferation assay using a range of different human tumour cell lines.

A549 = test: 72-h MTT cellular proliferation assay, A549; assay type: cell-based; settings: human tumour cell line A549, 72-h MTT; read-out: Cytotoxicity (IC50, μM) A549
Excerpt: as §2

CDK2/cyclin E = target: T1, CDK2/cyclin E (Homo sapiens, UniProt P24941); test: CDK2/Cyclin E kinase assay (GST-Rb phosphorylation, radiolabelled ATP); assay type: biochemical;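 note: enzyme was His-tagged CDK2/cyclin E co-expressed in baculovirus-infected Sf9 insect cells and purified over a metal-chelate column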
T1 construct: His; made in house; host or cells: Sf9 insect cells (baculovirus)

HT29 = test: 72-h MTT cellular proliferation assay, HT29; assay type: cell-based; settings: HT-29; human tumour cell line HT29, 72-h MTT; read-out: Cytotoxicity (IC50, μM) HT29
Excerpt: as §2

[1] = 72-h MTT cellular proliferation assay, W138; assay type: cell-based; settings: human, W138 cells (non-transformed); non-transformed cell line W138, 72-h MTT; read-out: Cytotoxicity (IC50, μM) W138
Protocol: as §1

[2] = 72-h MTT cellular proliferation assay, IMR90; assay type: cell-based; settings: human, IMR90 cells (non-transformed); non-transformed cell line IMR90, 72-h MTT; read-out: Cytotoxicity (IC50, μM) IMR90
Protocol: as §1

[3] = 72-h MTT cellular proliferation assay, Hs27; assay type: cell-based; settings: human, Hs27 cells (non-transformed); non-transformed cell line Hs27, 72-h MTT; read-out: Cytotoxicity (IC50, μM) Hs27
Protocol: as §1

MCF7 = test: 72-h MTT cellular proliferation assay, MCF7; assay type: cell-based; settings: human tumour cell line MCF7, 72-h MTT; read-out: Cytotoxicity (IC50, μM) MCF7
Excerpt: as §2

HeLa = test: 72-h MTT cellular proliferation assay, HeLa; assay type: cell-based; settings: human tumour cell line HeLa, read-out: Cytotoxicity (IC50, μM) HeLa
Excerpt: as §2

[4] = bound stated, (±0.05), read-out: IC50 for cdk2/cyclinE

| IC50 (CDK2/cyclin E; [4]) [nM] | IC50 (CDK2/cyclin E; read-out: CDK2/cyclin E (IC50)) [nM] | melting point [°C] | SMILES | anti-proliferative activity in cell-based assays (human tumour cell lines) | IC50 (Saos-2) [µM] | IC50 (A549) [µM] | IC50 (HT29) [µM] | IC50 at 72 h [1] [µM] | IC50 at 72 h [2] [µM] | IC50 at 72 h [3] [µM] | IC50 (MCF7) [µM] | IC50 (HeLa) [µM] |
| --- | --- | --- | --- | --- | --- | --- | --- | --- | --- | --- | --- | --- |
| < 1000 | 900 | 165.6 to 167.9 | Cc1c[nH]c(C)c1-c1ccnc(Nc2ccc(C(F)(F)F)cc2)n1 [Compound 12, [4-(2,4-Dimethyl-1H-pyrrol-3-yl)-pyrimidin-2-yl]-(4-trifluoromethyl-phenyl)-amine] | particularly effective anti-proliferative agents | 17 | 15 | 3.1 |  |  |  |  |  |
| < 500 |  | 195.6 to 198.9 | Cc1[nH]c(C#N)c(C)c1-c1ccnc(Nc2ccc(C(F)(F)F)cc2)n1 [Compound 34, 3,5-Dimethyl-4-[2-(4-trifluoromethyl-phenylamino)-pyrimidin-4-yl]-H-pyrrole-2-carbonitrile] | particularly effective anti-proliferative agents | 3.4 | 3.64 | 0.95 |  |  |  |  |  |
| < 500 |  | 178.3 to 181.2 | Cc1[nH]c(C#N)c(C)c1-c1ccnc(Nc2ccc(I)cc2)n1 [Compound 35, 4-[2-(4-Iodo-phenylamino)-pyrimidin-4-yl]-3,5-dimethyl-1H-pyrrole-2-carbonitrile] | particularly effective anti-proliferative agents | 0.75 | 0.51 | 0.11 | 21.3 | 37.3 | 35.1 | 0.45 | 0.09 |
| < 1000 |  | 189.5 to 191.7 | Cc1ccc(Nc2nccc(-c3c(C)[nH]c(C#N)c3C)n2)cc1I [Compound 38, 4-[2-(3-Iodo-4-methyl-phenylamino)-pyrimidin-4-yl]-3,5-dimethyl-1H-pyrrole-2-carbonitrile] | particularly effective anti-proliferative agents | 3.12 | 3.6 | 0.72 |  |  |  |  |  |
| < 1000 | 1020 | 194.2 to 197.9 | Cc1cc(Nc2nccc(-c3c(C)[nH]c(C#N)c3C)n2)ccc1Cl [Compound 39, 4-[2-(4-Chloro-3-methyl-phenylamino)-pyrimidin-4-yl]-3,5-dimethyl-1H-pyrrole-2-carbonitrile] | particularly effective anti-proliferative agents | 5.88 | 4.37 | 3.27 |  |  |  |  |  |
| < 1000 |  | 177.7 to 179.9 | Cc1ccc(Nc2nccc(-c3c(C)[nH]c(C#N)c3C)n2)cc1F [Compound 42, 4-[2-(3-Fluoro-4-methyl-phenylamino)-pyrimidin-4-yl]-3,5-dimethyl-1H-pyrrole-2-carbonitrile] | particularly effective anti-proliferative agents | 2.23 | 1.49 | 0.28 |  |  |  |  |  |
| < 1000 |  | 190.6 to 193.7 | Cc1[nH]c(C#N)c(C)c1-c1ccnc(Nc2ccc(N(C)C)cc2)n1 [Compound 43, 4-[2-(4-Dimethylamino-phenylamino)-pyrimidin-4-yl]-3,5-dimethyl-1H-pyrrole-2-carbonitrile] | particularly effective anti-proliferative agents | 1.5 | 1.41 | 0.17 |  |  |  |  |  |
| < 1000 |  | 265 to 268 | Cc1[nH]c([N+](=O)[O-])c(C)c1-c1ccnc(Nc2ccc(N(C)C)cc2)n1 [Compound 48, N-[4-(2,4-Dimethyl-5-nitro-1H-pyrrol-3-yl)-pyrimidin-2-yl]-N′,N′-dimethyl-benzene-1,4-diamine] | particularly effective anti-proliferative agents | 2.65 | 3.05 | 0.61 |  |  |  |  |  |
| < 500 |  | 198.1 to 203 | Cc1[nH]c(Br)c(C)c1-c1ccnc(Nc2cccc([N+](=O)[O-])c2)n1 [Compound 51, [4-(5-Bromo-2,4-dimethyl-1H-pyrrol-3-yl)-pyrimidin-2-yl]-(3-nitro-phenyl)-amine] | particularly effective anti-proliferative agents | 12.4 | 7.56 | 2.92 |  |  |  |  |  |
| < 1000 | 870 |  | CCN(CC)Cc1[nH]c(C)c(-c2ccnc(Nc3ccc(F)cc3)n2)c1C [Compound 53, [4-(5-Diethylaminomethyl-2,4-dimethyl-1H-pyrrol-3-yl)-pyrimidin-2-yl]-(4-fluoro-phenyl)-amine] | particularly effective anti-proliferative agents | 1.61 | 0.97 | 1.31 |  |  |  |  |  |
| < 500 |  | 88.4 to 91.6 | Cc1[nH]c(CN(C)C)c(C)c1-c1ccnc(Nc2ccc(F)cc2)n1 [Compound 54, [4-(5-Dimethylaminomethyl-2,4-dimethyl-1H-pyrrol-3-yl)-pyrimidin-2-yl]-(4-fluoro-phenyl)-amine] | particularly effective anti-proliferative agents | 0.7 | 2.76 | 3.2 |  |  |  |  |  |
| < 5000 | 1510 |  | Cc1[nH]c(CN2CCN(C)CC2)c(C)c1-c1ccnc(Nc2ccc(F)cc2)n1 [Compound 56, {4-[2,4-Dimethyl-5-(4-methyl-piperazin-1-ylmethyl)-1H-pyrrol-3-yl]-pyrimidin-2-yl}-(4-fluoro-phenyl)-amine] | particularly effective anti-proliferative agents | 14.2 | 13.8 | 5.09 |  |  |  |  |  |

| SMILES | IC50 (CDK2/cyclin E; [4]) [nM] | IC50 (CDK2/cyclin E; read-out: CDK2/cyclin E (IC50)) [nM] | melting point [°C] | anti-proliferative activity in cell-based assays (human tumour cell lines) | IC50 (Saos-2) [µM] | IC50 (A549) [µM] | IC50 (HT29) [µM] | IC50 at 72 h [1] [µM] | IC50 at 72 h [2] [µM] | IC50 at 72 h [3] [µM] | IC50 (MCF7) [µM] | IC50 (HeLa) [µM] |
| --- | --- | --- | --- | --- | --- | --- | --- | --- | --- | --- | --- | --- |
| Cc1[nH]c(C#N)c(C)c1-c1ccnc(Nc2ccc(F)cc2)n1 [Compound 32, 4-[2-(4-Fluoro-phenylamino)-pyrimidin-4-yl]-3,5-dimethyl-1H-pyrrole-2-carbonitrile] | < 500 |  |  | particularly effective anti-proliferative agents |  |  |  | 9.6 | 20.8 | 15.1 |  |  |
